Structures are written as SMILES. Bridge positions count the residues as written; N and C are the ends. Square brackets hold non-standard residues; d marks the D form. Peptide text beside a SMILES is read from it. * marks the point of attachment. ξ: configuration not given here. Phe(4-COOH) = N[C@@H](Cc1ccc(C(=O)O)cc1)C(=O)O; Bip = N[C@@H](Cc1ccc(-c2ccccc2)cc1)C(=O)O; Phe(3-Cl) = N[C@@H](Cc1cccc(Cl)c1)C(=O)O; Phe(3-OMe) = COc1cccc(C[C@H](N)C(=O)O)c1; Ala(2-furyl) = N[C@@H](Cc1ccco1)C(=O)O; Phe(3-Me) = Cc1cccc(C[C@H](N)C(=O)O)c1; Val(3-OH) = CC(C)(O)[C@H](N)C(=O)O; aIle = CC[C@@H](C)[C@H](N)C(=O)O; 3Pal = N[C@@H](Cc1cccnc1)C(=O)O; 4Pal = N[C@@H](Cc1ccncc1)C(=O)O; Cha = N[C@@H](CC1CCCCC1)C(=O)O; Cit = NC(=O)NCCC[C@H](N)C(=O)O; Ile(3ξ) = CCC(C)[C@H](N)C(=O)O; Thr(3ξ) = CC(O)[C@H](N)C(=O)O; Carboxymethyl = O=C(O)C*; NMeA = CN[C@@H](C)C(=O)O; Orn = NCCC[C@H](N)C(=O)O; Dab = NCC[C@H](N)C(=O)O; Dap = NC[C@H](N)C(=O)O; ξV = CC(C)C(N)C(=O)O

This assay addresses T1, PE-labeled human PD-L1-Ig binding to Jurkat cell line over-expressing human PD-1 (Jurkat-PD-1) (Homo sapiens, UniProt Q15116).
T1 construct: expressed in transfected cells; host or cells: Jurkat
In words: Jurkat-PD-1 Cell Binding High-Content Screening Assay (CBA): Method 1. Conditions: Jurkat-hPD-1 cells, PE-labeled PD-L1-Ig 20 nM final; read-out: Jurkat HPDL1 PD1 IC50 (uM) (Method 1).

T1 sequence (Q15116 25-288): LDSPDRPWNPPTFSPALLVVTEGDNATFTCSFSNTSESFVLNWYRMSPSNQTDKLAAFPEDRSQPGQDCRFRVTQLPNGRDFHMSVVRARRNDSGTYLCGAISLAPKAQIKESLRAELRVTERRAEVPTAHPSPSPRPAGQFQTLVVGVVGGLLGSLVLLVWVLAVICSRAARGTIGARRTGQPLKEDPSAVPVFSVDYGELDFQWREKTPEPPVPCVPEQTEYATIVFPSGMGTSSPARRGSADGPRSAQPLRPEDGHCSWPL

For orientation: IC50 means the concentration that gives 50% inhibition. Regarding `COc1cccc(C[C@@H]2NC(=O)[C@H](CC(=O)O)NC(=O)[C@H](Cc3ccc(O)cc3)NC(=O)[C@H](CC(N)=O)NC(=O)CSC[C@@H](C(=O)N[C@@H](C)C(N)=O)NC(=O)[C@H]([C@@H](C)O)NC(=O)[C@H](C(C)C)NC(=O)[C@H](CC(C)C)NC(=O)[C@H](CCCNC(N)=O)NC(=O)[C@@H](CC(C)C)NC(=O)[C@H](C)N(C)C(=O)[C@H](CCCNC(=N)N)NC(=O)[C@H](Cc3ccc(-c4ccccc4)cc3)NC(=O)[C@H](C(C)C)NC2=O)c1` [Compound 1191] ({CH2CO}-NYD[Phe(3-OMe)]V[Bip]R[NMeA][dL][Cit]LVTCA-NH2; thioether N-14), the 50% inhibitory concentration (IC50) came out at 0.07 µM.

As to `CC(C)C[C@@H]1NC(=O)[C@H](Cc2c[nH]c3ccccc23)NC(=O)[C@H](CC(=O)O)NC(=O)[C@H](Cc2ccc(O)cc2)NC(=O)[C@H](Cc2ccccc2)NC(=O)CSC[C@@H](C(=O)N[C@@H](C)C(N)=O)NC(=O)[C@H](CO)NC(=O)[C@H](C(C)C)NC(=O)[C@H](CC(C)C)NC(=O)[C@H](CC(N)=O)NC(=O)[C@@H](C)NC(=O)[C@H](C)N(C)C(=O)[C@H](C(C)C)NC(=O)[C@H](Cc2ccc(-c3ccccc3)cc2)NC1=O` [Compound 1727] ({CH2CO}-FYDWL[Bip]V[NMeA][dA]NLVSCA-NH2; thioether N-14), the IC50 was determined as 0.01 µM.

As to `CC(C)C[C@@H]1NC(=O)[C@H](CCN)NC(=O)[C@@H](CC(C)C)NC(=O)[C@H](C)N(C)C(=O)[C@H](CCCNC(N)=O)NC(=O)[C@H](Cc2ccc(-c3ccccc3)cc2)NC(=O)[C@H](C(C)C)NC(=O)[C@H](Cc2c[nH]c3ccccc23)NC(=O)[C@H](CC(=O)O)NC(=O)[C@H](Cc2cccc(Cl)c2)NC(=O)[C@H](CC(N)=O)NC(=O)CSC[C@@H](C(=O)N[C@@H](C)C(N)=O)NC(=O)[C@H]([C@@H](C)O)NC(=O)[C@H](C(C)C)NC1=O` [Compound 1310] ({CH2CO}-N[Phe(3-Cl)]DWV[Bip][Cit][NMeA][dL][Dab]LVTCA-NH2; thioether N-14), the 50% inhibitory concentration (IC50) was 0.11 µM.

On to `CCC(C)[C@@H]1NC(=O)[C@H](Cc2ccc(-c3ccccc3)cc2)NC(=O)[C@H](C(C)C)NC(=O)[C@H](Cc2c[nH]c3ccccc23)NC(=O)[C@H](CC(=O)O)NC(=O)[C@H](Cc2ccc(OCC(=O)O)cc2)NC(=O)[C@H](C(C)O)NC(=O)CSC[C@@H](C(=O)N[C@@H](CO)C(=O)O)NC(=O)[C@H](C(C)O)NC(=O)[C@H](C(C)C)NC(=O)[C@H](CC2CCCCC2)NC(=O)[C@H](CCN)NC(=O)[C@@H](CC(C)C)NC(=O)[C@H](C)N(C)C1=O` (stereo partly drawn) [Compound 2230] ({CH2CO}-[Thr(3ξ)]Y(Carboxymethyl)DWV[Bip][Ile(3ξ)][NMeA][dL][Dab][Cha]V[Thr(3ξ)]CS-OH; thioether N-14), for which the IC50 was determined as 0.03 µM.

On to `CC(C)C[C@@H]1NC(=O)[C@H](CCCN)NC(=O)[C@@H](CC(C)C)NC(=O)[C@H](C)N(C)C(=O)[C@H](CCCNC(=N)N)NC(=O)[C@H](Cc2ccc(-c3ccccc3)cc2)NC(=O)[C@H](C(C)C)NC(=O)[C@H](Cc2c[nH]c3ccccc23)NC(=O)[C@H](CC(=O)O)NC(=O)[C@H](Cc2ccc(C(=O)O)cc2)NC(=O)[C@H](Cc2ccccc2)NC(=O)CSC[C@@H](C(=O)N[C@@H](C)C(N)=O)NC(=O)[C@H]([C@@H](C)O)NC(=O)[C@H](C(C)C)NC1=O` [Compound 1156] ({CH2CO}-F[Phe(4-COOH)]DWV[Bip]R[NMeA][dL][Orn]LVTCA-NH2; thioether N-14), for which the 50% inhibitory concentration (IC50) came out at 0.03 µM.

Turning to `CCC(C)[C@@H]1NC(=O)[C@H](Cc2ccc(-c3ccccc3)cc2)NC(=O)[C@H](C(C)C)NC(=O)[C@H](Cc2cccc(C)c2)NC(=O)[C@H](CC(=O)O)NC(=O)[C@H](Cc2ccc(OCC(=O)O)cc2)NC(=O)[C@H](Cc2ccncc2)NC(=O)CSC[C@@H](C(=O)N[C@@H](CCCN)C(N)=O)NC(=O)[C@H](C(C)O)NC(=O)[C@H](C(C)(C)O)NC(=O)[C@H](CC2CCCCC2)NC(=O)[C@H](CCN)NC(=O)[C@@H](CC(C)C)NC(=O)[C@H](C)N(C)C1=O` (stereo partly drawn) [Compound 2145] ({CH2CO}-[4Pal]Y(Carboxymethyl)D[Phe(3-Me)]V[Bip][Ile(3ξ)][NMeA][dL][Dab][Cha][Val(3-OH)][Thr(3ξ)]C[Orn]-NH2; thioether N-14), the IC50 is 0.01 µM.

For the compound `CC(C)C[C@@H]1NC(=O)[C@H](CCN)NC(=O)[C@@H](CC(C)C)NC(=O)[C@H](C)N(C)C(=O)[C@H](CCCNC(=N)N)NC(=O)[C@H](Cc2ccc(-c3ccccc3)cc2)NC(=O)[C@H](C(C)C)NC(=O)[C@H](Cc2cccc(Cl)c2)NC(=O)[C@H](CC(=O)O)NC(=O)[C@H](Cc2ccc(C(=O)O)cc2)NC(=O)[C@H](CN)NC(=O)CSC[C@@H](C(=O)N[C@@H](C)C(N)=O)NC(=O)[C@H]([C@@H](C)O)NC(=O)[C@H](C(C)C)NC1=O` [Compound 1459] ({CH2CO}-[Dap][Phe(4-COOH)]D[Phe(3-Cl)]V[Bip]R[NMeA][dL][Dab]LVTCA-NH2; thioether N-14), the IC50 amounted to 0.04 µM.

For `CC(C)C[C@@H]1NC(=O)[C@H](CCN)NC(=O)[C@@H](CC(C)C)NC(=O)[C@H](C)N(C)C(=O)[C@H](CCCNC(N)=O)NC(=O)[C@H](Cc2ccc(-c3ccccc3)cc2)NC(=O)[C@H](C(C)C)NC(=O)[C@H](Cc2c[nH]c3ccccc23)NC(=O)[C@H](CC(=O)O)NC(=O)[C@H](Cc2ccc(C(=O)O)cc2)NC(=O)[C@H](CC(N)=O)NC(=O)CSC[C@@H](C(=O)N[C@@H](C)C(N)=O)NC(=O)[C@H]([C@@H](C)O)NC(=O)[C@H](C(C)C)NC1=O` [Compound 1317] ({CH2CO}-N[Phe(4-COOH)]DWV[Bip][Cit][NMeA][dL][Dab]LVTCA-NH2; thioether N-14), the IC50 came to 0.04 µM.

As for `CC(C)C[C@@H]1NC(=O)[C@H](CC(N)=O)NC(=O)[C@@H](CC(C)C)NC(=O)[C@H](C)N(C)C(=O)[C@H](CCCNC(N)=O)NC(=O)[C@H](Cc2ccc(-c3ccccc3)cc2)NC(=O)[C@H](C(C)C)NC(=O)[C@H](Cc2c[nH]c3ccccc23)NC(=O)[C@H](CC(=O)O)NC(=O)[C@H](Cc2ccc(O)cc2)NC(=O)[C@H](Cc2ccccc2)NC(=O)CSC[C@@H](C(=O)N[C@@H](C)C(=O)N[C@@H](CCCN)C(=O)O)NC(=O)[C@H](CO)NC(=O)[C@H](C(C)C)NC1=O` [Compound 2237] ({CH2CO}-FYDWV[Bip][Cit][NMeA][dL]NLVSCA[Orn]-OH; thioether N-14), the half-inhibitory concentration (IC50) was 0.01 µM.

For `CC[C@@H](C)[C@@H]1NC(=O)[C@H](Cc2ccc(-c3ccccc3)cc2)NC(=O)[C@H](CC(C)C)NC(=O)[C@H](Cc2c[nH]c3ccccc23)NC(=O)[C@H](CC(=O)O)NC(=O)[C@H](Cc2ccc(C(=O)O)cc2)NC(=O)[C@H](Cc2ccc(OCC(=O)O)cc2)NC(=O)CSC[C@@H](C(=O)N[C@@H](CCCCN)C(N)=O)NC(=O)[C@H](CC(=O)O)NC(=O)C(C(C)C)NC(=O)[C@H](CC(C)C)NC(=O)[C@H](CC(N)=O)NC(=O)[C@@H](CC(C)C)NC(=O)[C@H](C)N(C)C1=O` (stereo partly drawn) [Compound 2105] ({CH2CO}-Y(Carboxymethyl)[Phe(4-COOH)]DWL[Bip][aIle][NMeA][dL]NL[ξV]DCK-NH2; thioether N-14), the concentration for half-maximal inhibition (IC50) was 0.1 µM.

In the case of `CC[C@H](C)[C@@H]1NC(=O)[C@H](Cc2ccc(-c3ccccc3)cc2)NC(=O)[C@H](C(C)C)NC(=O)[C@H](Cc2c[nH]c3ccccc23)NC(=O)[C@H](CC(=O)O)NC(=O)[C@H](Cc2ccc(O)cc2)NC(=O)[C@H](Cc2cccnc2)NC(=O)CSC[C@@H](C(=O)N[C@@H](C)C(N)=O)NC(=O)[C@H]([C@@H](C)O)NC(=O)[C@H](C(C)C)NC(=O)[C@H](CC(C)C)NC(=O)[C@H](CCN)NC(=O)[C@@H](CC(C)C)NC(=O)[C@H](C)N(C)C1=O` [Compound 1401] ({CH2CO}-[3Pal]YDWV[Bip]I[NMeA][dL][Dab]LVTCA-NH2; thioether N-14), the IC50 was found to be 0.01 µM.

In the case of `CC[C@H](C)[C@@H]1NC(=O)[C@H](Cc2ccc(-c3ccccc3)cc2)NC(=O)[C@H](C(C)C)NC(=O)[C@H](Cc2c[nH]c3ccccc23)NC(=O)[C@H](CC(=O)O)NC(=O)[C@H](Cc2ccc(O)cc2)NC(=O)[C@H](Cc2ccccc2)NC(=O)CSC[C@@H](C(=O)N[C@@H](C)C(N)=O)NC(=O)[C@H]([C@@H](C)O)NC(=O)[C@H](C(C)C)NC(=O)[C@H](CC(C)C)NC(=O)[C@H](CCCNC(=N)N)NC(=O)[C@@H](CC(C)C)NC(=O)[C@H](C)N(C)C1=O` [Compound 1491] ({CH2CO}-FYDWV[Bip]I[NMeA][dL]RLVTCA-NH2; thioether N-14), the IC50 amounted to 0.09 µM.

`CC(C)C[C@@H]1NC(=O)[C@H](CCCNC(=N)N)NC(=O)[C@@H](CC(C)C)NC(=O)[C@H](C)N(C)C(=O)[C@H](CCCNC(N)=O)NC(=O)[C@H](Cc2ccc(-c3ccccc3)cc2)NC(=O)[C@H](C(C)C)NC(=O)[C@H](Cc2c[nH]c3ccccc23)NC(=O)[C@H](CC(=O)O)NC(=O)[C@H](Cc2ccc(O)cc2)NC(=O)[C@H](CC(N)=O)NC(=O)CSC[C@@H](C(=O)N[C@@H](C)C(N)=O)NC(=O)[C@H](CO)NC(=O)[C@H](C(C)C)NC1=O` [Compound 1227] ({CH2CO}-NYDWV[Bip][Cit][NMeA][dL]RLVSCA-NH2; thioether N-14): the half-inhibitory concentration (IC50) worked out at 0.04 µM.

For `CC(C)C[C@@H]1NC(=O)[C@H](Cc2c[nH]c3ccccc23)NC(=O)[C@H](CC(=O)O)NC(=O)[C@H](Cc2ccco2)NC(=O)[C@H](Cc2ccccc2)NC(=O)CSC[C@@H](C(=O)N[C@@H](C)C(N)=O)NC(=O)[C@H](CO)NC(=O)[C@H](C(C)C)NC(=O)[C@H](CC(C)C)NC(=O)[C@H](CC(N)=O)NC(=O)[C@@H](C)NC(=O)[C@H](C)N(C)C(=O)[C@H](C(C)C)NC(=O)[C@H](Cc2ccc(-c3ccccc3)cc2)NC1=O` [Compound 1734] ({CH2CO}-F[Ala(2-furyl)]DWL[Bip]V[NMeA][dA]NLVSCA-NH2; thioether N-14), the 50% inhibitory concentration (IC50) turned out to be 0.01 µM.

As to `CC[C@H](C)[C@@H]1NC(=O)[C@H](Cc2ccc(-c3ccccc3)cc2)NC(=O)[C@H](C(C)C)NC(=O)[C@H](Cc2c[nH]c3ccccc23)NC(=O)[C@H](CC(=O)O)NC(=O)[C@H](Cc2ccc(O)cc2)NC(=O)[C@H](Cc2ccc(OCC(=O)O)cc2)NC(=O)CSC[C@@H](C(=O)N[C@@H](C)C(N)=O)NC(=O)[C@H]([C@@H](C)O)NC(=O)[C@H](C(C)C)NC(=O)[C@H](CC2CCCCC2)NC(=O)[C@H](CCCNC(=N)N)NC(=O)[C@@H](CC(C)C)NC(=O)[C@H](C)N(C)C1=O` [Compound 1493] ({CH2CO}-Y(Carboxymethyl)YDWV[Bip]I[NMeA][dL]R[Cha]VTCA-NH2; thioether N-14), the IC50 is 0.03 µM.

Source of the values: patent US20240409585A1, “MACROCYCLIC IMMUNOMODULATORS” (priority 2021, published 2024).
